Laboratory results taken from patent US20250339443A1, “METHOD FOR TREATING OR PREVENTING CALCIUM RELEASE-ACTIVATED CALCIUM CHANNEL OR DISCOIDIN DOMAIN RECEPTOR 2 RELATED DISORDERS OR CONDITIONS” (LumiSTAR Biotechnology, Inc., priority 2023, published 2025).

Key:
CRAC channel [1] = target: T1, CRAC channel (Rattus norvegicus, UniProt Q5M848); assay: CRAC channel activity / SOCE in HSC-T6; assay type: cell-based; conditions: HSC-T6, 10 μM pretreatment 45 min
T1 construct: endogenous in cells; host or cells: HSC-T6
T1 sequence (Q5M848 whole entry): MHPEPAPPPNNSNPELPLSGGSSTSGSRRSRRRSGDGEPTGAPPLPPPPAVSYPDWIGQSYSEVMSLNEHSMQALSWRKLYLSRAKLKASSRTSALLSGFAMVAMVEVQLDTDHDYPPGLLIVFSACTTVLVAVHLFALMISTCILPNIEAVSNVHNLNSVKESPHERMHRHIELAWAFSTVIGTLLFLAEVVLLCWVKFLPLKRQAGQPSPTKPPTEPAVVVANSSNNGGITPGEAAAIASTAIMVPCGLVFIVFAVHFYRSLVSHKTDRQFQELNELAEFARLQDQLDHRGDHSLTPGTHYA
Method: (§1) Cells were co-treated with various compounds (10 μM) and TGF-β1 for 24 hours. Following this, cell lysates were harvested, and the protein expression was assessed by Western blot analysis. FIG. 3D depicts the examination of TGF-β1-induced fibronectin deposition and α-SMA expression in HCF treated with 10 μM of DMSO, BTP2, WRG-28, or Av through immunofluorescence staining. The images were captured using a confocal microscope, the Olympus FV-1000. FIG. 3E, FIG. 3F, and FIG. 3G illustrate the assessment of CRAC channel activity in HCF, MRC5, and rat HSC-T6. These cells were pretreated with 10 μM of BTP2, WRG-28, or Av for 45 min. The evaluation included measuring the second peak of each calcium wave and the rate of entry. Each bar within the figure represents the mean value derived from 77 to 91 cells for HCF, 31 to 49 cells for MRC5, and 43 to 94 cells for HSC-T6. In all the graphs, *, **, and *** denote p-values of <0.05, 0.01, and 0.001, respectively.
(§2) Cells cultured on a glass-bottom 96 well plate for 48 hours were treated with different compounds (10 μM) and Fura 2-AM (1 μM) simultaneously in a solution containing 145 mM NaCl, 2.8 mM KCl, 2 mM CaCl2, 2 mM MgCl2, 10 mM D-glucose, 10 mM HEPES, pH 7.4 for 40 minutes in the dark. […] All the images were analyzed by using IGOR Pro software. […]

[2] = test system: obstruction-induced persistent progression of renal fibrosis; assay: Kidney transcriptome (RNA sequencing, ingenuity pathway analysis) in RUUO mice; assay type: in vivo, mouse; conditions: treated after the obstruction was released (7/15*d)
From the text: FIG. 10A and FIG. 10B display how WRG-28 and Av treatments effectively reduce RUUO-induced overwhelming fibrosis and inflammation. In FIG. 10A, total ribonucleic acid (RNA) extracts from control mice (sham) and mice treated with DMSO, WRG-28, or Av after the obstruction was released (7/15*d) underwent ingenuity pathway analysis (IPA). Both FIG. 10A and FIG. 10B illustrate large-scale transcriptome analysis, further affirming the potent effects of WRG-28 and Av in preventing and protecting kidneys from progressive fibrosis.
Total RNA was extracted from kidneys by homogenizing the samples in TRIzol reagent (Invitrogen). Chloroform was added and the homogenate separates into three layers, the upper clear aqueous containing RNA was transferred into a new tube, and RNA was precipitated by adding isopropanol. The pellets were washed with 70% ethanol and then dissolved in RNase-free water. The RNA passes the quality control, including RNA integrity number (RIN) >7, OD260/OD280 ˜1.8, etc., were sent for sequencing. Transcriptomes were analyzed by ingenuity pathway analysis (IPA).
Total ribonucleic acid (RNA) was extracted from […]: control mice (sham) and mice that received treatments with DMSO, WRG-28, or Av after the obstruction was released (7/15*d). Transcriptomes were then analyzed by ingenuity pathway analysis (IPA). […]

CRAC channel [3] = target: T2, CRAC channel (Homo sapiens, UniProt Q96D31); assay: CRAC channel activity / SOCE in HCF; assay type: cell-based; design: endogenous in cells; conditions: 10 μM pretreatment 45 min
T2 sequence (Q96D31 whole entry): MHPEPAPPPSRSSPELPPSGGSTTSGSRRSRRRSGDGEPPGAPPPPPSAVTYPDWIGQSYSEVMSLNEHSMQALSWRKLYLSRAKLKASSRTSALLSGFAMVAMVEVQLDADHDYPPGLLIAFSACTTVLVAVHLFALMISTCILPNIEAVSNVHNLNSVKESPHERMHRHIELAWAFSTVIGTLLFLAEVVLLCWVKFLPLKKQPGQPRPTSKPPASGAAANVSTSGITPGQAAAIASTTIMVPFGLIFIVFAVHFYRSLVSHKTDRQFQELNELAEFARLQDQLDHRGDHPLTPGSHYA
Method: as §1, §2

CRAC channel [4] = target: T2, CRAC channel; assay: CRAC channel activity / SOCE in MRC5; assay type: cell-based; design: endogenous in cells; conditions: MRC5, 10 μM pretreatment 45 min
Method: as §1, §2

- SOCE (CRAC channel [1]): notably reduced
- SOCE (CRAC channel [3]): notably reduced
- SOCE (CRAC channel [4]): notably reduced
SMILES: CCNS(=O)(=O)c1ccc(COc2ccc3nc4ccc(=O)cc-4oc3c2)cc1 [WRG-28]
- inflammatory responses and fibrotic signaling pathways (transcriptome, IPA) [2]: reduced
